From patent publication US6239171A, “Tocotrienols and tocotrienol-like compounds and methods for their use” (Lipogenics, Inc., priority 1998, dated 2001)

Assays:
Assay type in all cases: in vivo, chicken
HMG-CoA reductase = biological target: T1, HMG-CoA reductase (Homo sapiens, UniProt P04035); assay: Hepatic HMG-CoA reductase activity in chickens fed supplemented diets; conditions: control diet + 100 ppm, 4 weeks
T1 construct: hepatocytes isolated from livers of 8-week old female chickens; endogenous in cells; host or cells: primary chicken hepatocytes
T1 sequence (P04035 1-888): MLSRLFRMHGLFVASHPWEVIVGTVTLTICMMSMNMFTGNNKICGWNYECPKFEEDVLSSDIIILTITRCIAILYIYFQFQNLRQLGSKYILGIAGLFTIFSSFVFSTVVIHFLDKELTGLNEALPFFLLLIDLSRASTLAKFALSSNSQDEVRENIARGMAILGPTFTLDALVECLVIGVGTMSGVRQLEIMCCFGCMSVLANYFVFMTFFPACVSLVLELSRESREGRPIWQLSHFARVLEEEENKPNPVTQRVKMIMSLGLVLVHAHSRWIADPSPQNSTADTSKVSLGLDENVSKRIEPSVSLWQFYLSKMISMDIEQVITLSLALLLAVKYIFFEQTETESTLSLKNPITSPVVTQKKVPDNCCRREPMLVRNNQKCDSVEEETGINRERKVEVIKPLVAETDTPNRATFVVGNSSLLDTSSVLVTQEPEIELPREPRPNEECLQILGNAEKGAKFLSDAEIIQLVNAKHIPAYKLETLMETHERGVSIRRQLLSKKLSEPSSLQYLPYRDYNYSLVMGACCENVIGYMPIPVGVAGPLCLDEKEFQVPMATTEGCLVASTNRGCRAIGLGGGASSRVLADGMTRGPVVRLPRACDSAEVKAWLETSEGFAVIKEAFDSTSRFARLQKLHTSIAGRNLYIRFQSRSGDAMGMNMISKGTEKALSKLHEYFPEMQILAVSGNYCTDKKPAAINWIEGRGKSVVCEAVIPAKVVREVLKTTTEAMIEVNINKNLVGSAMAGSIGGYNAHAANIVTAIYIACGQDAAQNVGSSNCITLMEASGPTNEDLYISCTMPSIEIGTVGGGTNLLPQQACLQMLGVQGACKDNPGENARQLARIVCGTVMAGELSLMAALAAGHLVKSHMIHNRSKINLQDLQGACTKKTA
Experimental: (§1) This example measured the effects of the TRF and its components on the hepatic enzymatic activity of HMG-CoA reductase and cholesterol 7α-hydroxylase. […] The amount of feed consumed ranged from 11.19-11.60 g per chicken and the feeding period was 4 weeks. The birds were fasted for a period of 36 hours and refed for 48 hours prior to sacrifice (at 0800 hours).

[1] = test system: cholesterol 7α-hydroxylase; assay: Hepatic cholesterol 7α-hydroxylase activity in chickens fed supplemented diets; conditions: control diet + 100 ppm, 4 weeks
Experimental: as §1

chickens [2] = assay: Antibody titers to sheep red blood cells in chickens; conditions: control diet + 100 ppm, 4 weeks, sheep red blood cells i.p.
chickens [3] = assay: Plasma thromboxane B2 and platelet factor 4 in chickens fed supplemented diets; conditions: control diet + 100 ppm, 4 weeks
Text: We next measured the effects of TRF and its components on serum levels of apolipoprotein (a)1, apolipoprotein B, triglycerides and glucose and the plasma levels of thromboxane B2 and platelet factor 4.

chickens [4] = assay: Serum cholesterol, apolipoproteins, triglycerides and glucose in chickens fed supplemented diets; conditions: 4 weeks; for increase in the HDL-/LDL-cholesterol ratio / reduction of serum cholesterol: 100 ppm in diet; for APO A1, percentage of control / APO A1 in serum / APO B in serum / APO B, percentage of control / DL-Cholesterol/Total Cholesterol / DL-Cholesterol/Total Cholesterol, percentage of control / Glucose in serum / Glucose, percentage of control / HDL-Cholesterol in serum / HDL-Cholesterol, percentage of control / HDL-Cholesterol/LDL-Cholesterol / HDL-Cholesterol/LDL-Cholesterol, percentage of control / LDL-Cholesterol in serum / LDL-Cholesterol, percentage of control / Total Cholesterol in serum / Total Cholesterol, percentage of control / Triglycerides in serum / Triglycerides, percentage of control: control diet + 100 ppm
Text: All assays conducted on chicken or swine serum were done following the protocols described in A. A. Qureshi et al., "Lowering Of Serum Cholesterol In Hypercholesterolemic Humans By Tocotrienols" (Palmvitee), Am. J. Clin. Nutr., 53, pp. 1021S-26S (1991). All enzymatic assays were done following the protocols described in A. A. Qureshi et al., "Effects of Cereals and Culture Filtrate of Trichoderma viride on Lipid Metabolism of Swine", Lipids, 17, pp. 924 (1982). Plasma insulin, glucagon and TNF levels were measured using radioinnumoassay kits from Ventrex Laboratories, Inc. (Portland, Me.), ICN Biomedicals, Inc. (Costa Mesa, Calif.) and Genzyme Corp. (Cambridge, Mass.), respectively. […]
Each group of 6 chickens (6-week old female while leghorn) was administered the chick mash diet described in Example 5, supplemented with one of three different amounts of waxes (sterols), 50 ppm of TRF (prepared as in Example 2) or 5% equivalent of the methanol insoluble fraction Louisiana rice bran oil. […] The birds were fasted for a period of 14 hours prior to sacrifice (at 0800 hours). […]

SMILES | Cholesterol 7α-Hydroxylase, percentage of control [1] | Cholesterol 7α-hydroxylase [1] | IgG antibody titers in serum (chickens [2]) | IgM antibody titers in serum (chickens [2]) | Total Ab titers in serum (chickens [2]) | Platelet Factor 4 (chickens [3]) | Platelet Factor 4, percentage of control (chickens [3]) | Thromboxane B2 (chickens [3]) | Thromboxane B2, percentage of control (chickens [3]) | increase in the HDL-/LDL-cholesterol ratio (chickens [4]) | reduction of serum cholesterol (chickens [4]) | APO A1, percentage of control (chickens [4]) | APO A1 in serum (chickens [4]) | APO B in serum (chickens [4]) | APO B, percentage of control (chickens [4]) | DL-Cholesterol/Total Cholesterol (chickens [4]) | DL-Cholesterol/Total Cholesterol, percentage of control (chickens [4]) | Glucose in serum (chickens [4]) | Glucose, percentage of control (chickens [4]) | HDL-Cholesterol in serum (chickens [4]) | also measured
CC(C)=CCC/C(C)=C/CO [Geraniol] | 100.59% | 10.28 nmol/min/mg | 1.00 ± 0.00 Log 2 | 5.42 Log 2 | 5.60 ± 2.11 Log 2 | 12.38 ng/mL | 94.57% | 25.46 pg/mL | 98.53% | ≤ 31.5% | 14% | 98.58% | 138.40 mg/100 ml | 29.20 mg/100 ml | 88.22% | 0.65 | 110.10% | 227.60 mg/100 ml | 101.47% | 82.28 ± 1.06 mg/dL | HMG-CoA Reductase, percentage of control (HMG-CoA reductase): 87.65%; HDL-Cholesterol, percentage of control (chickens [4]): 98.35%; HDL-Cholesterol/LDL-Cholesterol (chickens [4]): 2.00; HDL-Cholesterol/LDL-Cholesterol, percentage of control (chickens [4]): 131.50%; LDL-Cholesterol in serum (chickens [4]): 41.07 ± 1.13 mg/dL; LDL-Cholesterol, percentage of control (chickens [4]): 96.30%; Total Cholesterol in serum (chickens [4]): 122.53 ± 1.37 mg/dL; Total Cholesterol, percentage of control (chickens [4]): 85.82%; Triglycerides in serum (chickens [4]): 71.29 mg/100 ml; Triglycerides, percentage of control (chickens [4]): 96.30%
CC[C@H](C)C(=O)O[C@H]1C[C@@H](C)C=C2C=C[C@H](C)[C@H](CC[C@@H]3C[C@@H](O)CC(=O)O3)[C@H]21 [Lovastatin] | 110.96% | 11.34 nmol/min/mg | 1.00 ± 0.00 Log 2 | 5.90 Log 2 | 6.33 ± 1.44 Log 2 | 12.24 ng/mL | 93.51% | 24.89 pg/mL | 96.32% | ≤ 31.5% | 10% | 99.29% | 139.9 mg/100 ml | 25.80 mg/100 ml | 77.95% | 0.63 | 108.00% | 220.10 mg/100 ml | 98.13% | 81.38 ± 0.73 mg/dL | HDL-Cholesterol, percentage of control (chickens [4]): 97.28%; HDL-Cholesterol/LDL-Cholesterol (chickens [4]): 1.84; HDL-Cholesterol/LDL-Cholesterol, percentage of control (chickens [4]): 121.40%; LDL-Cholesterol in serum (chickens [4]): 44.12 ± 1.26 mg/dL; LDL-Cholesterol, percentage of control (chickens [4]): 86.51%; Total Cholesterol in serum (chickens [4]): 128.65 ± 1.02 mg/dL; Total Cholesterol, percentage of control (chickens [4]): 90.11%; Triglycerides in serum (chickens [4]): 64.04 mg/100 ml; Triglycerides, percentage of control (chickens [4]): 86.51%
